The supplement of paper PMC10307832

Assays:
Experiment in all cases: relative viability (nuclei count vs DMSO), 5 days (fraction); higher = more cells survive
[1] = compound: CCOC(=O)CCNc1cc(N2CCc3ccccc3CC2)nc(-c2ccccn2)n1 [GSK-J4] + Cc1nc(Nc2ncc(C(=O)Nc3c(C)cccc3Cl)s2)cc(N2CCN(CCO)CC2)n1 [Dasatinib] (partner 0.075 µM)
In short: (§1)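 Lung cancer cell lines in 1536-well plates got either a single drug or a fixed anchor-drug dose together with five library-drug doses (not always all listed) in √10 steps, by pin tool, on the day after seeding. Nuclei were counted after 5 days, and relative viability is the treated-to-vehicle ratio of nuclei counts. Values are medians of duplicate plates.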

[2] = compound: CCOC(=O)CCNc1cc(N2CCc3ccccc3CC2)nc(-c2ccccn2)n1 [GSK-J4] + C[C@]1(O)C[C@@H](c2nc(-c3ccc4ccc(-c5ccccc5)nc4c3)c3c(N)nccn32)C1 [Linsitinib] (partner 1 µM)
In short: as §1

[3] = compound: CCOC(=O)CCNc1cc(N2CCc3ccccc3CC2)nc(-c2ccccn2)n1 [GSK-J4] + Nc1nc2[nH]cc(CCc3ccc(C(=O)N[C@@H](CCC(=O)O)C(=O)O)cc3)c2c(=O)[nH]1 [Pemetrexed] (partner 0.2 µM)
In short: as §1

[4] = compound: CN1CCC(CC1)OC2=CC(=C(C=C2)NC3=NC=C4C(=N3)N(C(=O)N4C)C5CCCC5)OC [AZ3146] + CS(=O)(=O)CCNCc1ccc(-c2ccc3ncnc(Nc4ccc(OCc5cccc(F)c5)c(Cl)c4)c3c2)o1 [Lapatinib] (partner 2 µM)
In short: as §1

| Cell Line | relative viability ([1]; first compound 0.5 µM) | relative viability ([1]; first compound 1.581 µM) | relative viability ([1]; first compound 5 µM) | relative viability ([1]; first compound 15.81 µM) | relative viability ([1]; first compound 50 µM) | relative viability ([2]; first compound 0.5 µM) | relative viability ([2]; first compound 1.581 µM) | relative viability ([2]; first compound 5 µM) | relative viability ([2]; first compound 15.81 µM) | relative viability ([2]; first compound 50 µM) | relative viability ([3]; first compound 0.5 µM) | relative viability ([3]; first compound 1.581 µM) | relative viability ([3]; first compound 5 µM) | relative viability ([3]; first compound 15.81 µM) | relative viability ([3]; first compound 50 µM) | relative viability ([4]; first compound 0.08 µM) | relative viability ([4]; first compound 0.253 µM) | relative viability ([4]; first compound 0.8 µM) | relative viability ([4]; first compound 2.53 µM) | relative viability ([4]; first compound 8 µM) |
| --- | --- | --- | --- | --- | --- | --- | --- | --- | --- | --- | --- | --- | --- | --- | --- | --- | --- | --- | --- | --- |
| HCC-827 | 0.335 | 0.356 | 0.435 | 0.312 | 0.289 | 0.932 | 0.955 | 0.889 | 0.902 | 0.87 | 0.248 | 0.26 | 0.258 | 0.229 | 0.285 | 0.155 | 0.191 | 0.175 | 0.237 | 0.191 |
| Calu-6 |  |  |  |  |  | 0.868 | 0.924 | 0.719 | 0.927 | 0.869 |  |  |  |  |  | 1.07 | 1.16 | 1.01 | 1 | 0.397 |
| HOP-62 | 0.625 | 0.639 | 0.269 | 0.567 | 0.525 | 0.952 | 0.78 | 0.83 | 0.835 | 0.855 | 0.316 | 0.3 | 0.324 | 0.329 | 0.364 | 0.958 | 0.975 | 0.941 | 0.846 | 1.06 |
| ABC-1 | 0.47 | 0.546 | 0.465 | 0.598 | 0.297 | 0.788 | 0.632 | 1.07 | 0.802 | 0.378 |  |  |  |  |  | 1.24 | 1.15 | 1.33 | 1.31 | 1.11 |
| NCI-H727 | 0.338 | 0.305 | 0.522 | 0.298 | 0.223 | 0.245 |  | 0.568 | 0.267 | 0.222 |  |  |  |  |  | 0.745 | 0.557 | 0.79 | 1.29 | 0.869 |
| EBC-1 |  |  |  |  |  | 0.937 | 0.758 | 0.789 | 0.795 | 0.709 |  |  |  |  |  | 0.2 | 0.218 | 0.183 | 0.201 | 0.208 |
| NCI-H1650 | 0.34 | 0.261 | 0.372 | 0.283 | 0.314 |  |  |  |  |  | 0.439 | 0.303 | 0.392 | 0.36 | 0.331 | 0.649 | 1.12 | 0.562 | 0.97 | 0.581 |
| NCI-H1648 |  |  |  |  |  |  |  |  |  |  | 0.618 |  | 1.02 |  | 0.873 |  |  |  |  |  |
| NCI-H1703 |  |  |  |  |  | 0.636 | 0.276 | 0.336 | 0.364 | 0.761 |  |  |  |  |  | 1.16 | 1.26 | 0.953 | 0.892 | 0.372 |
| A549 |  |  |  |  |  | 0.559 |  | 0.733 | 0.442 | 0.578 |  |  |  |  |  | 0.977 | 0.948 | 0.924 | 0.872 | 0.109 |
| NCI-H522 | 0.83 | 0.803 | 0.624 | 0.671 | 0.664 |  |  |  |  |  | 0.983 | 0.823 |  | 0.608 | 1.1 |  |  |  |  |  |
| NCI-H1623 | 0.562 | 0.576 | 0.629 | 0.38 | 0.51 |  |  |  |  |  |  |  |  |  |  |  |  |  |  |  |
| SW 900 | 0.603 | 0.496 | 0.426 | 0.568 | 0.327 |  |  |  |  |  | 0.478 | 0.478 | 0.475 | 0.442 | 0.526 |  |  |  |  |  |
| LCLC-103H | 0.406 | 0.428 | 0.256 | 0.281 | 0.45 | 0.914 | 0.978 | 1.12 | 1.06 | 1.04 | 0.483 | 0.374 | 0.378 | 0.42 | 0.509 |  |  |  |  |  |
